Data: patent publication US5587402A, “Regression of mammalian leukemia cell tumors” (priority 1995, dated 1996)

How the values were obtained:
NIH3T3 cells = assay: Inhibition of NIH3T3 cell growth; assay type: cell-based, mouse; conditions: FIG. 3
Description: NIH3T3 (mouse embryo) cells were obtained from the American Type Culture Collection and were grown in Dulbecco's modified Eagle's medium supplemented with 10% calf serum. M600B immortalized human mammary epithelial cells (Stampfer, M. R., 1985, J. Tissue Culture Methods 9: 107-115) were obtained from Dr. Martha Stampfer and were grown in supplemented HCDB 170 medium (Hammond, et al. (1984) Proc. Natl. Acad. Sci U.S.A. 81: 5435-5439), as described previously (Stampfer, et al. (1985) Proc. Natl. Acad. Sci U.S.A. 82: 2394-2398; Eldridge, et al. (1989) Cancer Res. 49: 4326-4331).
All cells were maintained in 100-mm dishes at 37° C. in a humidified 5% CO2 atmosphere. Viable cells were distinguished from nonviable cells by counting azure II/methylene blue-stained colonies 10 days after the cells were plated at a density of 100 cells per dish. Trypan blue exclusion was measured by incubating cells for 1 minute with one drop of trypan blue per 10 ml of cells. Viable (colorless) and nonviable (blue) cells were then counted on a hemocytometer.
Additionally, growth of HT29 (human colon adenocarcinoma) cells was inhibited by 80% by 1 mM perillyl alcohol.

human cancer cell lines = assay: Growth of human cancer cell lines (NCI Developmental Therapeutics Program); assay type: cell-based
Description: Various concentrations of perillyl alcohol inhibited the growth of a number of human cancer cell lines. FIG. 5A-G is a set of diagrams showing the effects of perillyl alcohol on different cancer cell lines. These experiments were conducted by the National Cancer Institute Developmental Therapeutics Program.

[1] = test system: DMBA-induced rat mammary carcinomas; assay: Pair-feeding study: regression and inhibition of DMBA-induced mammary carcinomas in rats; assay type: in vivo, Wistar-Furth female rats
Description: We used Wistar-Furth female rats for in vivo studies. Wistar-Furth female rats were obtained from Harlan Sprague-Dawley, Inc., (Madison, Wis.). […] Rates were provided Teklad Lab blox chow and acidified water ad libitum.
The DMBA was dissolved in a stock solution of 20 mg DMBA/ml sesame oil, heated and allowed to cool to room temperature before administration. DMBA (Eastman Kodak, Rochester, N.Y.) was given as a single gastric intubation of 50 mg DMBA/kg rat body weight.
In the pair-feeding study, a group of 70 mammals was treated with DMBA. Beginning four weeks post-carcinogen administration, mammals were weighed and palpated weekly.
Fresh diets were make every 7-10 days. All mammals were provided fresh diet daily to minimize evaporation of the monoterpenes.
In a pair-feeding study, all palpable mammary tumors were classified as either "primary" tumors (i.e., the first tumor(s) palpated with a minimum diameter of 3 mm) or "secondary" tumors (i.e. a palpable tumor arising after initial diet assignment). […] All carcinogen-exposed mammals not bearing a first palpable tumor by week 15 post-carcinogen were removed from the experiment. Complete regression of a tumor was defined as non-palpability for a minimum of three consecutive weeks. All mammals in the pair-feeding study were followed for a minimum of 10 weeks post-diet assignment for tumor growth or regression at primary tumor sites and all other mammary glands. The rats were necropsied if moribund. Complete necropsies were performed on all rats at the termination of the study.

[2] = test system: p210-transformed FDC-P1 cells; assay: Proliferation of p210 bcr/abl-transformed FDC-P1 myeloid cells; assay type: cell-based, murine
Description: (The p210 bcr/abl oncogene is carried on a helper-free retrovirus referred to as "p210.") FDC-P1 myeloid cells are an immature cell line from myeloid lineage derived from mouse bone marrow (Dexter, TM, J. Exp. Med. 152: 1036-1047, 1980).

[3] = test system: p210 transformed FDC-P1 cells (F-p210.1); assay: Cell cycle distribution of p210-transformed FDC-P1 cells; assay type: cell-based, murine; conditions: for Cell cycle distribution (% > GO /G1): untreated control 53; for arrest at the G0/G1 stage: 500 μM
Description: (§1) Table 3 tabulates the effect of P-OH on cell cycle distribution of nontransformed and p210 transformed FDC-P1 cells.
(§2) ^1 Cells were plated at 2.5 × 10^5 per ml in duplicate well
(§3) of a 24well plate in the presence of 10% WEHI3-conditioned media as a
(§4) source of IL3 and with the indicated concentration of P--OH. After 24
(§5) hours, the cells were fixed in ethanol, permeabilized and stained with
(§6) propidium iodide, then analyzed for DNA content by flow cytometry.
(§7) ^2 FDCP1 = nontransformed cells, Fp210.1 = 210transformed FDCP1 cells

[4] = test system: nontransformed FDC-P1 cells; assay: Cell cycle distribution of nontransformed FDC-P1 cells; assay type: cell-based, murine; conditions: for Cell cycle distribution (% > GO /G1): 24 hours, untreated control 62
Description: as §1, §2, §3, §4, §5, §6, §7

[5] = Pharmacologic analysis of serum concentration in rats; assay type: in vivo; conditions: rats fed 2% perillyl alcohol
From the text: In light of these observations, and our belief that p21^ras may be a target for perillyl alcohol activity in bcr/abl-transformed cells, it may be relevant that cellular ras activity is required for proliferating cells to pass through G1 (Dobrowski, et al., Mol. Cell Biol. 14: 5441-49, 1994).

C=C(C)[C@@H]1CC=C(CO)CC1 [perillyl alcohol]
inhibition of cell growth (NIH3T3 cells): significantly inhibited cell growth in a dose-dependent manner
inhibition of cell growth (human cancer cell lines; variety of human cancer cell types including leukemia cells (FIG. 5A)): inhibition of cell growth
inhibition of cancer cell growth (human cancer cell lines; various concentrations, FIG. 5A-G, all lines): inhibited cancer cell growth
development of secondary tumors ([1]; 2.5% perillyl alcohol diet): inhibited the development of secondary tumors
Primary Tumor Regression (tumors regressed / tumors) ([1]; 2.5% perillyl alcohol diet, complete regression, pair-fed control 9/29, listed as POH): 22/27
Primary Tumor Regression (%) ([1]; 2.5% perillyl alcohol diet, complete regression, pair-fed control 31%): 81%
Number of Secondary Tumors/Rat ([1]; 2.5% perillyl alcohol diet, pair-fed control 1.62): 0.04
Time to Regress ([1]; 2.5% perillyl alcohol diet, pair-fed control 5.6, listed as POH): 3.6 ± 0.3 wks
Secondary Tumor Regression (tumors regressed / tumors) ([1]; 2.5% perillyl alcohol diet, pair-fed control 11/42): 0/1
Secondary Tumor Regression (%) ([1]; 2.5% perillyl alcohol diet, pair-fed control 26%): 0%
secondary tumors / mammals ([1]; 2.5% perillyl alcohol diet, pair-fed control 42/26): 1/26
amount of perillyl alcohol needed relative to the amount of limonene ([1]; 2.5% perillyl alcohol versus 10% limonene diet): 25%
time for a primary tumor to regress to a non-palpable mass ([1]; perillyl alcohol-treated group versus pair-fed controls): shorter than the time for spontaneous regression in the pair-fed controls
growth inhibition, transformed versus nontransformed cells ([2]; 100-800 μM, FIG. 9B): significantly more inhibitory for the growth of p210-transformed FDC-P1 cells compared to nontransformed FDC-P1 cells
growth-inhibitory curve with added IL-3 ([2]; IL-3 added): significantly shifted upward
inhibition at 400 µM ([2]; Mus musculus, FDC-P1, read-out: inhibition of growth): > 80%
reversion of autonomously growing malignant cells ([2]; conclusion from in vitro results): reverts autonomously growing malignant cells to a factor-dependent, apoptosis-sensitive state
Cell cycle distribution (% > GO /G1) ([3]; 100 μM P--OH, 24 hours): 53%
apoptosis ([3]; 500 μM P--OH, 24 hours): Significant apoptosis
Cell cycle distribution (% > GO /G1) ([3]; 500 μM P--OH, 24 hours): 16%
arrest at the G0/G1 stage ([3]; 24 hours): almost completely arrested at the G0 /G1 stage
arrest at the G0/G1 stage ([3]; 24 hours, listed as P--OH): entirely in the G0 /G1 stage of the cell cycle
morphological changes ([3]; up to 500 μM): morphological changes suggestive of apoptotic cell death
Cell cycle distribution (% > GO /G1) ([4]; 100 μM P--OH): 57%
Cell cycle distribution (% > GO /G1) ([4]; 500 μM P--OH): 49%
changes in the cell cycle distribution ([4]; up to 500 μM): only minor changes
serum concentration relative to the in vitro effective concentration range [5]: within the effective concentration range observed in these in vitro experiments
